Source: patent publication US6703376B2, “Use of uridine triphosphates and related compounds for the prevention and treatment of pneumonia in immobilized patients” (Inspire Pharmaceuticals, Inc., priority 1996, dated 2004)
Read-outs that look alike come from different tables or passages of the source.

What was measured:
[1] = test system: conscious adult ewes; assay: Trachael mucus velocity (TMV) study, fluoroscopy of radiopaque disks; format: in vivo, sheep; conditions: for maximal effect on tracheal mucus velocity: 400 μmole (4 ml of 10^−1M) nebulized, mean±standard error, n=6, 15 min after administration; for effect on tracheal mucus velocity: doses 4 to 400 μmole; for effect on tracheal mucus velocity / duration of significant effects on TMV after administration / time of maximal effect on TMV after administration: nebulized; for duration of significant effects on TMV after administration: highest dose (400 μmole); for time of maximal effect on TMV after administration: adult ewes
Excerpt: The effects of UTP and U2P4 on trachael mucus velocity (TMV) were studied using the following procedures: The nasal passages of conscious adult ewes were anesthetized with a 2% lidocaine solution. After local anesthesia was produced, a modified endotracheal tube 7.5 mm was placed such that the cuff was just below the vocal cords (verified by fluoroscopy). Inspired air was warmed and humidified. The cuff of the endotracheal tube was inflated only during administation of the test compound to minimize possible impairment of TMV by the cuff. Test compounds were administered by nebulization in a volume of 4 mL over a period of 10-12 min. TMV was measured by fluroscopy. Ten to twenty radiopaque disks (Teflon®/bismuth trioxide; 1 mm diameter, 0.8 mm thick, weighing 1.8 mg) were introduced into the trachea through a modified suction catheter with a puff of compressed air (3-4 L/min). Velocities of the individual disks were recorded on videotape from a portable image intensifier unit. Individual disk velocities were calculated by measuring the distance traveled by each disk during a 1 min observation period. Values reported are the means of the individual disk velocities. A collar was worn by the sheep which was used as a standard to correct for magnification errors inherent in the fluoroscope.

[2] = test system: healthy adult ewes; assay: Mucociliary clearance study, 99mTc-HSA clearance by gamma camera; format: in vivo, sheep; conditions: 400 μmole nebulized; initial results n=2; compared to saline control
Description: In this study healthy adult ewes were given 99 mTc-labeled human serum albumin (99 mTc-HSA) via a nebulized aerosol. The 99 mTC-HSA (20 mCi) was administered over 5 min through a nasotracheal tube introduced under local anesthesia with 2% lidocaine. After administration of the 99 mTc-HSA, the animals were given a test compound: either UTP or U2P4. Test compounds were administered by nebulization in a volume of 4 mL over a period of 10-12 min. The test compounds were given at a dose of 400 μmole. After the administration of the test compound, the animals were extubated. Clearance of the radiolabeled particles was monitored with a gamma camera. Measurements were made at 0, 5, 10, 15, 20, 25, 30, 35, 40, 45, 50, 55, 60, […], 90, 105 and 120 min.

[3] = test system: normal volunteers; conditions: acute; cited from earlier work
[4] = test system: anesthetized and ventilated dogs; conditions: cited from earlier work
[5] = test system: goblet cells in human airway epithelial explants; conditions: tissues from healthy individuals and patients with CF; cited from earlier work
[6] = test system: human nasal epithelial cells; conditions: cited from earlier work
[7] = test system: cultured human epithelial cells; conditions: cells from normal adult humans and CF patients; cited from earlier work

## O=c1ccn([C@@H]2O[C@H](COP(=O)(O)OP(=O)(O)OP(=O)(O)OP(=O)(O)OC[C@H]3O[C@@H](n4ccc(=O)[nH]c4=O)[C@H](O)[C@@H]3O)[C@@H](O)[C@H]2O)c(=O)[nH]1 [U2P4, P1,P4-di(uridine-5′)tetraphosphate]
[1]
  maximal effect on tracheal mucus velocity: 144±9 % of baseline
  effect on tracheal mucus velocity: significant dose-related effects
  duration of significant effects on TMV after administration: ≤ 2 h
  time of maximal effect on TMV after administration: 15 min
[2]
  clearance of radiolabeled particles (99mTc-HSA): promote clearance of the radiolabeled particles

## O=c1ccn([C@@H]2O[C@H](COP(=O)(O)OP(=O)(O)OP(=O)(O)O)[C@@H](O)[C@H]2O)c(=O)[nH]1 [UTP, uridine 5′-triphosphate]
[1]
  maximal effect on tracheal mucus velocity: 125±7 % of baseline
  effect on tracheal mucus velocity: significant dose-related effects
  duration of significant effects on TMV after administration: up to 4 h
  time of maximal effect on TMV after administration: 15 min
[3]
  improvement of mucociliary clearance (MCC): 2.5 fold
[4]; aerosol, 10^−2 M and 10^−1 M in nebulizer
  effects on peak inspiratory airway pressure, mean pulmonary artery pressure, heart rate, cardiac output, thoracic aortic pressure, electrocardiogram, arterial blood gases: no significant effects
[4]; intravenous, sequential doses 0.1, 1, 3 and 5 mmoles/kg infused over 10 minutes
  changes in mean pulmonary artery pressure, heart rate, cardiac output, mean arterial pressure: no significant changes
[5]
  mucin secretion by goblet cells: increase the rate and total amount of mucin secretion
[2]
  clearance of radiolabeled particles (99mTc-HSA): promote clearance of the radiolabeled particles
[6]; cultured nasal epithelial cells from cystic fibrosis (CF) patients
  Cl- secretion: This response was also observed
[6]; normal human nasal epithelial cells, apical application
  Cl- secretion: increased Cl- secretion in a concentration-dependent manner
[7]
  cilia beat frequency: increase in cilia beat frequency
